Several values for one entry are separate records, joined by “and”; a condition that tells them apart may be missing. Equal entries are not always repeated. Inconclusive results and toxic doses are left out.
System: L1210 leukemia ip in BDF1 mice, survival T/C
Assay: NCI In Vivo Anticancer Drug Screen. Data for tumor model L1210 Leukemia (intraperitoneal) in B6D2F1 (BDF1) mice
Settings: endpoint: mean survival time, higher = longer survival
Summary of the method: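 Ratio derived from survival: compound-dosed mice over vehicle-dosed mice, all bearing a transplantable tumor.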

[1] = dose: 100.0 mg/kg/injection, schedule: Q01DX001 (ip), vehicle: saline with Tween-80
[2] = dose: 100.0 mg/kg/injection, schedule: Q04DX003 (ip), vehicle: saline
[3] = dose: 200.0 mg/kg/injection, schedule: Q04DX003 (ip), vehicle: saline
[4] = dose: 400.0 mg/kg/injection, schedule: Q04DX003 (ip), vehicle: saline
[5] = dose: 100.0 mg/kg/injection, schedule: Q01DX001 (ip), vehicle: saline
[6] = dose: 100.0 mg/kg/injection, schedule: Q01DX009 (ip), vehicle: saline
[7] = dose: 100.0 mg/kg/injection, schedule: Q04DX002 (ip), vehicle: saline
[8] = dose: 200.0 mg/kg/injection, schedule: Q01DX001 (ip), vehicle: saline
[9] = dose: 200.0 mg/kg/injection, schedule: Q01DX009 (ip), vehicle: saline
[10] = dose: 200.0 mg/kg/injection, schedule: Q04DX002 (ip), vehicle: saline
[11] = dose: 400.0 mg/kg/injection, schedule: Q01DX001 (ip), vehicle: saline
[12] = dose: 400.0 mg/kg/injection, schedule: Q01DX009 (ip), vehicle: saline
[13] = dose: 400.0 mg/kg/injection, schedule: Q04DX002 (ip), vehicle: saline
[14] = dose: 50.0 mg/kg/injection, schedule: Q01DX009 (ip), vehicle: Klucel (hydroxypropylcellulose) (HPC)
[15] = dose: 100.0 mg/kg/injection, schedule: Q01DX009 (ip), vehicle: Klucel (hydroxypropylcellulose) (HPC)
[16] = dose: 100.0 mg/kg/injection, schedule: Q04DX003 (ip), vehicle: saline with Tween-80
[17] = dose: 200.0 mg/kg/injection, schedule: Q04DX003 (ip), vehicle: saline with Tween-80
[18] = dose: 100.0 mg/kg/injection, schedule: Q01DX009 (ip), vehicle: saline with Tween-80
[19] = dose: 200.0 mg/kg/injection, schedule: Q01DX009 (ip), vehicle: saline with Tween-80
[20] = dose: 400.0 mg/kg/injection, schedule: Q01DX009 (ip), vehicle: saline with Tween-80
[21] = dose: 100.0 mg/kg/injection, schedule: Q04DX002 (ip), vehicle: Klucel (hydroxypropylcellulose) (HPC)
[22] = dose: 200.0 mg/kg/injection, schedule: Q04DX002 (ip), vehicle: Klucel (hydroxypropylcellulose) (HPC)
[23] = dose: 400.0 mg/kg/injection, schedule: Q04DX002 (ip), vehicle: Klucel (hydroxypropylcellulose) (HPC)
[24] = dose: 200.0 mg/kg/injection, schedule: Q01DX009 (ip), vehicle: Klucel (hydroxypropylcellulose) (HPC)
[25] = dose: 400.0 mg/kg/injection, schedule: Q01DX009 (ip), vehicle: Klucel (hydroxypropylcellulose) (HPC)
[26] = dose: 400.0 mg/kg/injection, schedule: Q04DX003 (ip), vehicle: saline with Tween-80
[27] = dose: 100.0 mg/kg/injection, schedule: Q04DX003 (ip), vehicle: Klucel (hydroxypropylcellulose) (HPC)
[28] = dose: 200.0 mg/kg/injection, schedule: Q04DX003 (ip), vehicle: Klucel (hydroxypropylcellulose) (HPC)
[29] = dose: 400.0 mg/kg/injection, schedule: Q04DX003 (ip), vehicle: Klucel (hydroxypropylcellulose) (HPC)
[30] = dose: 50.0 mg/kg/injection, schedule: Q01DX009 (ip), vehicle: saline with Tween-80

With `N#CC1C(=O)N=C(c2ccccc2)CC1c1ccccc1` (centres undefined) the T/C [1] was 86 % of control, the T/C (dose: 200.0 mg/kg/injection, schedule: Q01DX001 (ip), vehicle: saline with Tween-80) was 96 % of control and the T/C (dose: 400.0 mg/kg/injection, schedule: Q01DX001 (ip), vehicle: saline with Tween-80) was 104 % of control.
For `O=[N+]([O-])c1cc(S(=O)(=O)F)ccc1O`, the T/C (dose: 5.0 mg/kg/injection, schedule: Q01DX001 (ip), vehicle: other) was 112 % of control, the T/C (dose: 10.0 mg/kg/injection, schedule: Q01DX001 (ip), vehicle: other) was 97 % of control and the T/C (dose: 20.0 mg/kg/injection, schedule: Q01DX001 (ip), vehicle: other) was 95 % of control. For the same compound, the T/C (dose: 40.0 mg/kg/injection, schedule: Q01DX001 (ip), vehicle: other) was 101 % of control and the T/C (dose: 80.0 mg/kg/injection, schedule: Q01DX001 (ip), vehicle: other) was 106 % of control.
`Cc1csc(C)[n+]1[O-]` was tested, and the T/C [2] was 102 % of control, the T/C [3] was 101 % of control and the T/C [4] was 98 % of control.
In the case of `NNc1cc(S(=O)(=O)O)cc(C(=O)O)c1O`, the T/C [5] is reported as 107 % of control, the T/C [6] is reported as 100 % of control and 103 % of control and the T/C [7] is reported as 97 % of control and 90 % of control. For the same compound, the T/C [8] was 102 % of control, the T/C [9] was 110 % of control and 89 % of control and the T/C [10] was 100 % of control and 90 % of control. For the same compound, the T/C [11] was 102 % of control, the T/C [12] was 87 % of control and the T/C [13] was 108 % of control and 90 % of control.
In the case of `Cc1c2ccccc2c(C)c2c1cc(O)c1ccccc12`, the T/C [14] is reported as 113 % of control and the T/C [15] is reported as 121 % of control.
For `Cc1ccc(CO)cc1C`, the T/C (dose: 50.0 mg/kg/injection, schedule: Q04DX003 (ip), vehicle: saline with Tween-80) was 95 % of control, the T/C [16] was 104 % of control and the T/C [17] was 93 % of control.
`CC1C(=O)CCC2(C)CCC(C)(C)CC12` (centres undefined) was tested, and the T/C [18] was 98 % of control, the T/C [2] was 105 % of control and the T/C [19] was 95 % of control. The T/C [3] was 97 % of control, the T/C [20] was 101 % of control and the T/C [4] was 103 % of control.
With `CCOC1OC(=O)c2cccc3ccc4cccc1c4c23` (centres undefined) the T/C [21] was 90 % of control, the T/C [22] was 86 % of control and the T/C [23] was 93 % of control.
For `O=C(Nc1cccc(F)c1)N(CC(O)c1ccccc1)C1CCCCC1` (centres undefined), the T/C [15] was 114 % of control, the T/C [24] was 100 % of control and the T/C [25] was 97 % of control.
`C(/C=C\c1ccccc1)=Nc1ccccc1` was tested, and the T/C [16] was 95 % of control, the T/C [17] was 95 % of control and the T/C [26] was 92 % of control.
With `Nc1nc(=O)n(CCCOc2ccc([N+](=O)[O-])c(Cl)c2)cc1-c1ccc(Cl)c(Cl)c1` the T/C (dose: 25.0 mg/kg/injection, schedule: Q01DX001 (ip), vehicle: saline with Tween-80) was 95 % of control, the T/C (dose: 50.0 mg/kg/injection, schedule: Q01DX001 (ip), vehicle: saline with Tween-80) was 96 % of control and the T/C [1] was 88 % of control.
`C/C(=N\OC(=O)Nc1ccccc1)c1ccccc1` was tested, and the T/C (dose: 100.0 mg/kg/injection, schedule: Q01DX001 (ip), vehicle: carboxymethylcellulose (CMC)) was 98 % of control and the T/C (dose: 400.0 mg/kg/injection, schedule: Q01DX001 (ip), vehicle: carboxymethylcellulose (CMC)) was 95 % of control.
For `S=C([S][Sn]([c]1ccccc1)([c]1ccccc1)[c]1ccccc1)N1CCCCC1`, the T/C [27] was 100 % of control, the T/C [28] was 94 % of control and the T/C [29] was 94 % of control.
For `Cc1ccc(C)c(OC(=O)NC2CCCCC2)c1`, the T/C [15] was 93 % of control, the T/C [27] was 101 % of control and the T/C [24] was 92 % of control. The T/C [28] was 104 % of control, the T/C [25] was 95 % of control and the T/C [29] was 98 % of control.
`O=C(Nc1ccccc1-c1ccc([N+](=O)[O-])cc1)c1ccc(-c2ccccc2)cc1` was tested, and the T/C [4] was 92 % of control.
For `ClCCCSc1ccccc1`, the T/C [5] was 96 % of control and 111 % of control, the T/C [8] was 96 % of control and 98 % of control and the T/C [11] was 97 % of control and 98 % of control.
`OCC[CH2][Sn]([c]1ccccc1)([c]1ccccc1)[c]1ccccc1` was tested, and the T/C (dose: 6.25 mg/kg/injection, schedule: Q04DX002 (ip), vehicle: saline with Tween-80) was 101 % of control, the T/C (dose: 12.5 mg/kg/injection, schedule: Q04DX002 (ip), vehicle: saline with Tween-80) was 101 % of control and the T/C (dose: 25.0 mg/kg/injection, schedule: Q04DX002 (ip), vehicle: saline with Tween-80) was 87 % of control. For the same compound, the T/C [30] was 96 % of control, the T/C [18] was 96 % of control and the T/C [19] was 96 % of control.
With `O=C1CCCC(=O)NNC(=O)Nc2ccc(cc2)Cc2ccc(cc2)NC(=O)NN1` the T/C (dose: 50.0 mg/kg/injection, schedule: Q01DX001 (ip), vehicle: saline) was 104 % of control, the T/C [5] was 90 % of control and the T/C [8] was 93 % of control. The T/C [11] was 93 % of control.
In the case of `COC1=C(CNc2ncnc3nc[nH]c23)CC=CC1`, the T/C [6] is reported as 95 % of control, the T/C [9] is reported as 97 % of control and the T/C [12] is reported as 100 % of control.
With `CCN(CC)c1ccc(Cc2cc(O)c3c(c2O)C(=O)c2ccccc2C3=O)cc1` the T/C [14] was 89 % of control, the T/C [15] was 104 % of control and the T/C [21] was 89 % of control. For the same compound, the T/C [22] was 89 % of control and the T/C [23] was 96 % of control.
With `OC(c1ccc(Br)cc1)(c1cccs1)C1CC1` (centres undefined) the T/C [18] was 98 % of control, the T/C [16] was 103 % of control and the T/C [19] was 98 % of control. The T/C [17] was 100 % of control, the T/C [20] was 98 % of control and the T/C [26] was 97 % of control.
For `Oc1ccc(Cl)cc1N=Cc1ccccc1`, the T/C [5] was 100 % of control, the T/C [8] was 105 % of control and the T/C [11] was 107 % of control.
`Cc1cc(Cl)ccc1NC(C)(C)C` was tested, and the T/C (dose: 75.0 mg/kg/injection, schedule: Q04DX002 (ip), vehicle: Klucel (hydroxypropylcellulose) (HPC)) was 104 % of control, the T/C (dose: 150.0 mg/kg/injection, schedule: Q04DX002 (ip), vehicle: Klucel (hydroxypropylcellulose) (HPC)) was 108 % of control and the T/C (dose: 300.0 mg/kg/injection, schedule: Q04DX002 (ip), vehicle: Klucel (hydroxypropylcellulose) (HPC)) was 104 % of control.
With `NCCCC(=S)S` the T/C [7] was 95 % of control, the T/C [10] was 96 % of control and 103 % of control and the T/C [13] was 96 % of control and 116 % of control.
`C=CCCCCCCCCCC` was tested, and the T/C (dose: 50.0 mg/kg/injection, schedule: Q04DX003 (ip), vehicle: Klucel (hydroxypropylcellulose) (HPC)) was 97 % of control, the T/C [5] was 98 % of control and the T/C [27] was 95 % of control. The T/C [8] was 101 % of control, the T/C [28] was 97 % of control and the T/C [11] was 96 % of control.
`O=C(COc1cccc(Cl)c1Cl)Nc1cccnc1` was tested, and the T/C [16] was 102 % of control, the T/C [17] was 96 % of control and the T/C [26] was 98 % of control.
With `C=CCCCCCCCCC(N)=O` the T/C (dose: 25.0 mg/kg/injection, schedule: Q01DX009 (ip), vehicle: saline with Tween-80) was 108 % of control, the T/C [30] was 96 % of control and the T/C [16] was 101 % of control. For the same compound, the T/C [17] was 95 % of control and the T/C [26] was 184 % of control.
With `O=C(Nc1ccccc1)OCCc1c2ccccc2[n+]([O-])c2ccccc12` the T/C [16] was 91 % of control, the T/C [17] was 91 % of control and the T/C [26] was 102 % of control.
`O=C1O/C(=C/c2ccccc2)C(O)=C1c1ccccc1` was tested, and the T/C (dose: 100.0 mg/kg/injection, schedule: Q04DX002 (ip), vehicle: saline with Tween-80) was 93 % of control and the T/C (dose: 200.0 mg/kg/injection, schedule: Q04DX002 (ip), vehicle: saline with Tween-80) was 103 % of control.
For `Cc1ccc([N+](=O)[O-])cc1N1CCNC1=O`, the T/C [15] was 104 % of control, the T/C [27] was 102 % of control and the T/C [24] was 102 % of control. The T/C [28] was 98 % of control, the T/C [25] was 100 % of control and the T/C [29] was 101 % of control.
`CCCCOP(=O)(CSCC)OCCCC` was tested, and the T/C [15] was 98 % of control, the T/C [24] was 90 % of control and the T/C [25] was 93 % of control.

— PubChem BioAssay AID248 (DTP/NCI, 2004)
